{"source": "patent US12173042B2", "about": "“Methods of treating cancers with CT45 targeted therapies” (The University of Chicago, priority 2016, dated 2024)", "key": {"[1]": {"system": "chromatin enrichment of KAP-1 or PP4", "assay": "Chromatin fractionation", "assay_type": "cell-based, human", "details": "OVCAR5-V5-CT45 cell line", "protocol": "Chromatin fractionation was performed as described previously. Soluble proteins and proteins bound to open or compacted chromatin were separated by stepwise increasing the salt and nuclease (MNase) treatment. 1E7 cells were washed with PBS and 1 ml low salt buffer (LSB: 10 mM HEPES [pH 7.4], 25 mM KCl, 10 mM NaCl, 1 mM MgCl2, 0.1 mM EDTA). Pelleted cells were then resuspended in six times the packed cell volume (PCV) of LSB supplemented with protease and phosphatase inhibitor cocktail (Roche). After snap freezing in liquid nitrogen, samples were quickly thawed and immediately centrifuged (10 min at 10,000 rpm). The pellet was resuspended in a volume of high-salt buffer (HSB: 50 mM Tris-HCl [pH 8.0], 5% [v/v] glycerol, 1 mM EDTA, 10 mM MgCl2, 400 mM KCl, supplemented with protease and phosphatase inhibitor cocktail), equal to 0.25 V of LSB. After centrifugation at 10,000 rpm (supernatant=nucleoplasmic fraction), the pellet was resuspended in a volume nuclease buffer containing 10 U/ml MNase (NEB) and incubated at 37° C. for 10 min and centrifuged for 5 min at 10,000 rpm (supernatant=chromatin fraction 1). The pellet was then resuspended in the same volume of nuclease buffer containing 100 U/ml MNase and incubated another 45 min at 37° C. before an equal V of solubilization buffer (nuclease buffer+2% [v/v] NP-40, 2% [v/v] Triton X-100, 600 mM NaCl) was added. […]"}, "OVCAR5-V5-CT45 cells": {"system": "OVCAR5-V5-CT45 cells", "assay": "Nuclear size (DAPI)", "assay_type": "cell-based, human", "details": "cells expressing CT45, day 5, carboplatin 5 μM", "protocol": "FIG. 13A-I. CT45 interferes with chromatin dynamics after DNA damage. A, Western blot analysis of OVCAR5 and OVKATE cell line pairs treated with carboplatin (5 μM). Day 3. B, Immunofluorescence staining of KAP1-S824 γH2AX and DAPI in OVCAR5-V5 and OVCAR5-V5-CT45 cell line pair with or without carboplatin treatment (5 μM) at day 3, 5, and 7. Data are means+/−s.e.m. of 5 independent replicates (right panel). Representative cells are shown left. C, CT45 positive 59M cells were collected and processed for a chromatin segregation assay as detailed in the Methods. PP4 complex members, KAP1, and HDAC2 were detected by western blot. D, Volcano plot of chromatin-immunoprecipitation mass spectrometry (ChIP-MS) results for the V5-tag in OVCAR5-V5-CT45 vs. OVCAR5-V5 cell line. Fold enrichment of V5-tagged CT45 over control cell line (V5 tag alone) is plotted against the t-test p-value (−log10). Dashed lines indicate significance thresholds (FDR<0.01, s0=2). […] Most significant pathways are ranked by enrichment false-discovery rate. F, Fold change in nuclear sizes of OVCAR5-V5-CT45 and OVCAR5-V5 cells at day 5 with carboplatin (5 μM) treatment normalized to untreated cells. Representative DAPI images are shown in upper panel. Bar plots represent nuclear sizes from 5 independent experiments. Scale ar=[…]. Data are means+/−s.e.m. […]"}, "OVCAR5-V5-CT45 tumors": {"system": "OVCAR5-V5-CT45 tumors", "assay": "Subcutaneous tumor growth in nude mice, CT45 expressing tumors", "assay_type": "in vivo, athymic nude mice", "details": "carboplatin 20 mg/kg tail vein 1 time/week, vs untreated CT45 tumors", "protocol": "(§1) 5 million OVCAR5-V5 or OVCAR5-V5-CT45 cells suspended in a 1:2 solution of serum-free media to growth-factor reduced matrigel were injected subcutaneously into the right and left flanks respectively, of 8 week old female athymic nude mice. After 5 days, treatment was administered through the tail vein 1 time/week at 20 mg/kg. Sterile water served as the control treatment. Tumor growth was measured every 2-3 days using calipers until the tumor neared 1 cm3 and was measured daily. Once the tumor reached 1 cm3 the mouse was sacrificed. 4 mice were removed from the study early due to ulcerations of the skin. All experiments were approved by the Institutional Animal Care and Use Committee of the University of Chicago.\nas §1, with “Five million” for “5 million”, “8 weeks” for “8 week”, “1 cm^3” for “1 cm3”, “skin. […]” for “skin. All experiments were approved by the Institutional Animal Care and Use Committee of the University of Chicago.”"}, "[2]": {"system": "KAP-1 Ser824 phosphorylation", "assay": "KAP-1 Ser824 phosphorylation (western blot, immunofluorescence)", "assay_type": "cell-based, human", "details": "carboplatin 5 μM", "protocol": "Cells were treated with indicated drugs for 3 days and then media was changed. On indicated day of collection, both adherent and non-adherent cells were collected in RIPA buffer (25 mM Tris-HCl pH 7.6, 150 mM NaCl, 1% NP-40, 0.5% sodium deoxycholate, 0.1% SDS) supplemented with protease inhibitor cocktail (Thermo Scientific) and phosphatase inhibitor cocktail (Sigma). Lysates were incubated for 30 min on ice, sonicated and cleared by centrifugation (15 min, 14 000 rpm, 4° C.). The quantity of protein was determined by BCA reagent (Pierce). The extracts were analyzed by SDS-PAGE on a 4-20% gradient gel (Bio-Rad).\nCells were treated with 0 or 5 μM carboplatin on glass chamber slides. After 72 hr, media was changed. At designated timepoints, slides were fixed for 10 min at room temperature with 4% paraformaldehyde, cells were washed and permeabilized with PBS/0.1% Triton-X for 15 min and then blocked for 1 hr in blocking buffer (PBS/0.1% Triton-X/0.05% BSA/0.05% goat serum). Cells were washed three times and then were then incubated with primary antibody overnight diluted in blocking buffer at 4° C. Following three washes, cells were incubated with secondary antibody (diluted in blocking buffer) for 1 hr at room temperature and then with Hoechst 33342 for 2 min. Slides were mounted with ProLong Gold Antifade. […] A minimum of 100 cells/sample were analyzed. […]"}}}
{"smiles": "N.N.O=C([O-])C1(C(=O)[O-])CCC1.[Pt+2]", "note": "[carboplatin]", "values": [{"measurement": "chromatin enrichment of KAP-1 or PP4", "setting": "[1]", "value": "did not find"}, {"measurement": "nuclear size", "setting": "OVCAR5-V5-CT45 cells", "value": "larger nuclei"}, {"measurement": "tumor growth", "setting": "OVCAR5-V5-CT45 tumors", "value": "significantly reduced growth"}, {"measurement": "time of peak of phosphorylated KAP-1", "setting": "[2]; both cell lines", "value": 3, "unit": "days"}, {"measurement": "phosphorylation of KAP-1 at Ser824", "setting": "[2]", "value": "induced phosphorylation"}]}
